Molecular target: T1, N-lysine methyltransferase KMT5A (Homo sapiens, UniProt Q9NQR1)
T1 sequence (Q9NQR1 whole entry): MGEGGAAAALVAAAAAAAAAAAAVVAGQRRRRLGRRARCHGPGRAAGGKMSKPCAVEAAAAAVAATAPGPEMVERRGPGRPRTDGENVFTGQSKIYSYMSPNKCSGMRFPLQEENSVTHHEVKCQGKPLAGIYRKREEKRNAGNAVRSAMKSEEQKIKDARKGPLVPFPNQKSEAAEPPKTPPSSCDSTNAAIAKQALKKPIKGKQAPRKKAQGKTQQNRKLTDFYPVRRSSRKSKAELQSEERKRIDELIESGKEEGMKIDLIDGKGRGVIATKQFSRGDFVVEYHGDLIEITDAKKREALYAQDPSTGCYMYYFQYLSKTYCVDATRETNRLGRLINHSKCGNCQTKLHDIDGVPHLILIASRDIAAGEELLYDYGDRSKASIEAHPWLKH
Test: Inhibition of SETD8 in HEK293T cells assessed as reduction in H4K20me level after 2 to 3 days by Western blot analysis
Assay type: cell-based

Row | EC50 [µM] | Compound
1 | < 1 | Cc1ccc(/N=C2\CC(=O)c3sc(C)nc3C2=O)cc1
2 | < 5 | O=C1C(Cl)=C(NCCN2CCOCC2)C(=O)c2ncccc21
3 | < 5 | CC1(C)C(=O)N=C2C1=C(O)C(=O)c1ccccc12
